From patent US20030167129A1, “Binding compounds and methods for identifying binding compounds” (priority 2000, published 2003)
Each block holds one molecule with its values, some of them ahead of it. Where a SMILES comes first, the peptide text is derived from it. Where no end group is shown, it is not given here. [ ]: non-standard residue; d: D form. pY = N[C@@H](Cc1ccc(OP(=O)(O)O)cc1)C(=O)O; 2Nal = N[C@@H](Cc1ccc2ccccc2c1)C(=O)O; Tic = O=C(O)[C@@H]1Cc2ccccc2CN1

How the values were obtained:
HIV IIIb = type: cell-based, HIV-1
Protocol: Several of these peptides have also been screened for activity in inhibition of HIV infectivity and determined to be effective in specifically blocking the entrance of HIV into cells with EC50's in the nM range. For example, the assays depicted in FIG. 12 confirm the inhibition of HIV infection by CXCR4 peptide inhibitors.
The anti-HIV activity of exemplary compounds was tested using established adherent HELA cells or Magi cell-based (Magi cell line incorporating the reporter genes) cell line infected with a variety of HIV-1 isolates. Inhibitory activity was determined using a reporter system. The cell line was modified to contain the gene for the HIV-LTR (long terminal repeat) promoter which is used by HIV after infection. This gene was coupled to an enzyme, β-galactosidase, which can cleave a substrate, CPRG (Chlorophenol red β-D-galactoside) which gives rise to a colored signal or FDG (Fluorescein di-Galactoside) which gives rise to a fluorescent signal. Thus, if the cell becomes infected with HIV, it couples to the HIV-LTR promoter, producing the enzyme β-galactosidase, which then cleaves the CPRG substrate giving rise to a measurable absorbance signal, for example, at or about 595 nm. […]
Measurements were taken four days after infection. […] EC50's were determined graphically using Kaleidagraph, a software program sold by Synergy Software, Reading, PA. […]

CXCR4 = biological target: T1, CXCR4 (Homo sapiens, UniProt P61073); assay: radioligand binding assay, [125I]-SDF-1α on membrane preparations of GST-CXCR4 (High Five); details: increasing [125I]-SDF-1α 0.5 nM to 10 nM; GST-CXCR4 (High Five) membranes; FIG. 7A; read-out: KD, saturation binding
T1 construct: A full-length clone was not isolated with the 3′ and 5′ primers; however, two halves were isolated and ligated together; made in house; host or cells: High Five (Trichoplusia ni) insect cells, baculovirus; membrane preparation
Protocol: Relative affinities were measured by modifying the radiolabel binding assay used in receptor purification. Therefore, the ability of these peptides to displace [1^251]-SDF-1 from purified CXCR4 membranes was measured.
Whole cells from Sf9 and High five cell lines were lysed using hypotonic buffers (10 mM Tris, pH 7.4, 5 mM EDTA), and membrane preparations were made by homogenization and centrifugation using standard techniques known to those skilled in the art. […] For filtration and washing, the reaction was transferred to Millipore Multiscreen filter plates (HATF 0.45 μm; pre-blocked with 10% BSA) (Bedford, Mass.), filtered using vacuum, washed 4-5 times with 200 μL ice-cold buffer, and radioactive counts bound were detected using scintillation counting. All points were done in triplicate. Uninfected cells were used as a control for this experiment. […] Analyses of KD and IC50 were performed using non-linear curve fitting in Kaleidagraph (software program sold by Synergy Software, Reading, Pa.).
The affinity for the receptor was determined using standard radioligand displacement methodology.

SH2 (src) = biological target: T2, SH2 (src) (Homo sapiens, UniProt P12931); details: binding domain SH2 (src); cited from earlier work
T2 construct: SH2 (src)

T1 sequence (P61073 whole entry): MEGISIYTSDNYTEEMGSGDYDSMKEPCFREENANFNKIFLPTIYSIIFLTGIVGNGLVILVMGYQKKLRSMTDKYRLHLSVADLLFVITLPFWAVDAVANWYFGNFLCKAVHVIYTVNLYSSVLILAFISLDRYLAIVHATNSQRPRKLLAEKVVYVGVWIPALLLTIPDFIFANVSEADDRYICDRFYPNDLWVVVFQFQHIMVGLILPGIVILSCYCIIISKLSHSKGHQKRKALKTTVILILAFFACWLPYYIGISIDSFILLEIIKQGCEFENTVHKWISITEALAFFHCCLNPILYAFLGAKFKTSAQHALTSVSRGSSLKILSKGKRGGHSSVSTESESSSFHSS

Molecule: CC[C@H](C)[C@H](NC(=O)[C@H](CC(C)C)NC(=O)[C@H](CO)NC(=O)[C@H](CCCNC(=N)N)NC(=O)[C@H](C)N)C(=O)N[C@@H](Cc1ccc2ccccc2c1)C(=O)N[C@@H](CCCNC(=N)N)C(=O)N1Cc2ccccc2C[C@H]1C(=O)N[C@@H](C)C(=O)N[C@@H](CCCNC(=N)N)C(=O)N[C@@H](CCCNC(=N)N)C(=O)N[C@@H](Cc1ccc2ccccc2c1)C(=O)N[C@@H](CCCNC(=N)N)C(=O)N[C@@H](CCCNC(=N)N)C(N)=O [CPI-1500, ARSLI(2-Nal)R(Tic)ARR(2-Nal)RR] (H-ARSLI[2Nal]R[Tic]ARR[2Nal]RR-NH2; N-terminus assumed)
viral specificity (HIV IIIb; HIV IIIb versus R5 virus 9881): specificity for the HIV IIIb over the R5 virus 9881
EC50 (HIV IIIb; HIV IIIb, FIG. 12A, read-out: EC50, inhibition of infection of HIV IIIb): 280 nM

Kd (CXCR4): 3.27 nM
Molecule: [^125I]-SDF-1α: radiolabeled SDF-1α, the radioligand of the CXCR4 binding assay

Molecule: pYEEIY ([pY]EEIY)
Kd (SH2 (src)): 100 nM
